Columns and labels:
Assay type in all cases: functional, cell-based
HCT-116 = assay: Cytotoxicity against human HCT116 cells after 72 hrs by MTT assay; details: HCT-116, 72 h
A549 = assay: Cytotoxicity against human A549 cells after 72 hrs by MTT assay; details: A549, 72 h
ZR-75-30 = assay: Cytotoxicity against human ZR75-30 cells after 72 hrs by MTT assay; details: ZR-75-30, 72 h
HL-60 = assay: Cytotoxicity against human HL60 cells after 72 hrs by MTT assay; details: HL-60, 72 h

Measured: IC50

C[C@@H]1C[C@@H](O)[C@H]2C(C)(C)CCC[C@]2(C)[C@@]1(O)CCC1=CC(=O)OC1
> 5 µg/mL: all assays above

CC1=C(CC[C@@H](C)C(=O)CCC2=CC(=O)OC2)C(C)(C)CCC1
> 5 µg/mL: all assays above

CO[C@@H]1C[C@@]2(CC[C@@]3(O2)[C@H](C)CC[C@H]2C(C)(C)[C@@H](OC(C)=O)CC[C@@]23C)[C@H](OC)O1 (relative stereo)
> 5 µg/mL: all assays above

CC(=O)O[C@@H]1CC(C)=C(CCC2=CC(=O)OC2)[C@@]2(C)CCCC(C)(C)[C@H]12 (relative stereo)
> 5 µg/mL: all assays above

C[C@@H]1CC=C2C(C)(C)CCC[C@]2(C)[C@@]1(O)CCC1=CC(=O)OC1 (relative stereo)
> 5 µg/mL: all assays above

C[C@@H]1C[C@@H](O)[C@H]2C(C)(C)CCC[C@]2(C)[C@@]12CC[C@]1(COC(=O)C1)O2 (relative stereo)
> 5 µg/mL: all assays above

C[C@@H]1CC=C2C(C)(C)CCC[C@]2(C)[C@@]12CC[C@]1(COC(=O)C1)O2 (relative stereo)
> 5 µg/mL: all assays above

CC(=O)O[C@@H]1C[C@@H](C)[C@]2(CC[C@]3(COC(=O)C3)O2)[C@@]2(C)CCCC(C)(C)[C@H]12 [PREVITEXILACTONE]
> 5 µg/mL: all assays above

CC(=O)O[C@@H]1C[C@@H](C)[C@](O)(CCc2ccoc2)[C@@]2(C)CCCC(C)(C)[C@H]12 [ROTUNDIFURAN]
> 5 µg/mL: all assays above

CC(=O)O[C@@H]1C[C@@H](C)[C@](O)(CCC2=CC(=O)OC2O)[C@@]2(C)CCCC(C)(C)[C@H]12 (stereo partly drawn) [VITEAGNUSIN I]
> 5 µg/mL: all assays above

CC(=O)O[C@@H]1C[C@@H](C)[C@](O)(CCC2=CC(=O)OC2)[C@@]2(C)CCCC(C)(C)[C@H]12 [VITEXILACTONE]
> 5 µg/mL: all assays above

CO[C@H]1C[C@@]2(CC[C@@]3(O2)[C@H](C)CC[C@H]2C(C)(C)[C@@H](OC(C)=O)CC[C@@]23C)[C@H](OC)O1 [VITEXTRIFOLIN B]
> 5 µg/mL: all assays above

Source: ChEMBL document CHEMBL2390855, “Labdane-type diterpenoids from the fruits of Vitex trifolia” (J Nat Prod, 2013)
